The source of these data is ChEMBL document CHEMBL1921760, “Design, synthesis and biological evaluation of 6-pyridylmethylaminopurines as CDK inhibitors” (Bioorg Med Chem, 2011).

The subject of data set [1] is HCT-116. As to the kind of experiment: Antitumor activity against human HCT116 cells xenografted in NCR athymic mouse assessed as growth delay at 50 mg/kg, po twice daily at 12 to 14 hrs intervals measured after 12 days relative to vehicle treated control. In kind it is functional, organism-based. More on the design: dose 50 mg/kg.
Data set [2] relates to HT-29. As to the kind of experiment: Inhibition of CDK-mediated RB phosphorylation at Ser-780 in human HT29 cells at 0.1 to 20 uM after 24 hrs by Western blotting relative to control. In kind it is cell-based.
The subject of data set [3] is HT-29. Description: Reduction of RNA polymerase 2 expression in human HT-29 cells. In kind it is functional, cell-based.
In data set [4] the test system is HT-29. As to the kind of experiment: Cell cycle arrest in human HT-29 cells assessed as reduction at S phase at 3.3 uM up to 16 hrs measuring distribution of bromodeoxyuridine incorporation by flow cytometry. In kind it is functional, cell-based.
Data set [5] has as its system HT-29. As to the kind of experiment: Cell cycle arrest in human HT-29 cells assessed as accumulation at G2/M phase at 3.3 uM up to 16 hrs measuring distribution of bromodeoxyuridine incorporation by flow cytometry. In kind it is functional, cell-based.
Data set [6] has as its target Cyclin-dependent kinase 2/cyclin E1 (Homo sapiens, UniProt P24941). Description: Inhibition of CDK2/cyclin E. In kind it is protein-complex assay.
In data set [7] the target is Cyclin-dependent kinase 1/cyclin B1 (Homo sapiens, UniProt P06493). Description: Inhibition of CDK1/cyclin B. Type of data set: protein-complex assay.
For data set [8], the target named is Cyclin-dependent kinase 4/cyclin D1 (Homo sapiens, UniProt P11802). As to the kind of experiment: Inhibition of CDK4/cyclin D1. In kind it is protein-complex assay.
For data set [9], the target named is Cyclin-dependent kinase 7/ cyclin H (Homo sapiens, UniProt P50613). As to the kind of experiment: Inhibition of CDK7/cyclin H. Type of data set: protein-complex assay.
Data set [10] in a line: Inhibition of PKA.
For data set [11], the system named is A2780. As to the kind of experiment: Growth inhibition of cisplatin-susceptible human A2780 cells after 96 hrs by sulforhodamine B assay. In kind it is functional. Conditions: A2780, 96 h.
The subject of data set [12] is A2780. As to the kind of experiment: Growth inhibition of cisplatin-resistant human A2780 cells after 96 hrs by sulforhodamine B assay. In kind it is functional. Particulars: A2780, 96 h.
Data set [13] deals with CH1. As to the kind of experiment: Growth inhibition of doxorubicin-susceptible human CH1 cells after 96 hrs by sulforhodamine B assay. In kind it is functional. Conditions: CH1, 96 h.
In data set [14] the test system is CH1. Description: Growth inhibition of doxorubicin-resistant human CH1 cells after 96 hrs by sulforhodamine B assay. Conditions: CH1, 96 h. Type of data set: functional.
For data set [15], the system named is HCT-116. As to the kind of experiment: Growth inhibition of human HCT116 cells after 96 hrs by sulforhodamine B assay. Type of data set: functional. Particulars: HCT-116, 96 h.
Data set [16] concerns HT-29. As to the kind of experiment: Growth inhibition of human HT-29 cells after 96 hrs by sulforhodamine B assay. In kind it is functional. Particulars: HT-29, 96 h.
The subject of data set [17] is KM12. As to the kind of experiment: Growth inhibition of human KM12 cells after 96 hrs by sulforhodamine B assay. Conditions: KM12, 96 h. In kind it is functional.
The nature of data set [18]: Metabolic stability in mouse liver microsomes assessed as compound metabolized at 10 uM after 30 mins by LC-MS analysis. Type of data set: ADME, Microsome. Particulars: read-out: Activity.
Data set [19] has as its target CDK9/cyclin T1 (Homo sapiens, UniProt P50750). As to the kind of experiment: Inhibition of CDK9/cyclin T1. In kind it is protein-complex assay.
Data set [20] in a line: Solubility of the compound in water. In kind it is physicochemical. Conditions: buffer.
The nature of data set [21]: Cmax in BALB/c mouse plasma at 50 mg/kg, iv after 24 hrs by LC-MS analysis. Type of data set: ADME, organism-based. More on the design: dose 50 mg/kg, route intravenous.
Data set [22] can be described thus: AUC in BALB/c mouse plasma at 50 mg/kg, iv after 24 hrs by LC-MS analysis. Type of data set: ADME, organism-based. On the set-up: time < 24 hr, dose 50 mg/kg, route intravenous.
Data set [23] can be described thus: Half life in BALB/c mouse plasma at 50 mg/kg, iv by LC-MS analysis. Type of data set: ADME, organism-based. More on the design: dose 50 mg/kg, route intravenous.
Data set [24] is described as follows: Volume of distribution in BALB/c mouse plasma at 50 mg/kg, iv after 24 hrs by LC-MS analysis. Type of data set: ADME, organism-based. On the set-up: dose 50 mg/kg, route intravenous.
Data set [25] is described as follows: Clearance in BALB/c mouse plasma at 50 mg/kg, iv after 24 hrs by LC-MS analysis. On the set-up: dose 50 mg/kg, route intravenous. In kind it is ADME, organism-based.
Data set [26] deals with Mus musculus. Description: Ratio of Seliciclib clearance to compound clearance in BALB/c mouse plasma at 50 mg/kg, iv after 24 hrs by LC-MS analysis. Type of data set: ADME, organism-based. On the set-up: dose 50 mg/kg, route intravenous. Particulars: in vivo.
Data set [27] can be described thus: Oral bioavailability in BALB/c mouse at 50 mg/kg by LC-MS analysis. Type of data set: ADME, organism-based. Conditions: in vivo.
The subject of data set [28] is HCT-116. Description: Antitumor activity against human HCT116 cells xenografted in NCR athymic mouse assessed as reduction in tumor volume at 50 mg/kg, po twice daily at 12 to 14 hrs intervals measured after 12 days relative to vehicle treated control. More on the design: scale not given: the % may be the effect or the level left. In kind it is functional.

Activity calls are given as the source filed them. The rule behind the calls is not given here.

Chain of Cyclin-dependent kinase 4/cyclin D1 (P11802 whole entry): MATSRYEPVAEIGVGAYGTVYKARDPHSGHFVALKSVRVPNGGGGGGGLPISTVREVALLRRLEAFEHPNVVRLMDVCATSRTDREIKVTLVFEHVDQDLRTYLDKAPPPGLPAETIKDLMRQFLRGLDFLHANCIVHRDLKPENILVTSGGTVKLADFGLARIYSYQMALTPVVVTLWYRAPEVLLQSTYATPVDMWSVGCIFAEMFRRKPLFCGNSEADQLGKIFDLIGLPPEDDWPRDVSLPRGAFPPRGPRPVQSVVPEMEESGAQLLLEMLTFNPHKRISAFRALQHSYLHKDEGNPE
Chain of Cyclin-dependent kinase 4/cyclin D1 (P24385 whole entry, further chain): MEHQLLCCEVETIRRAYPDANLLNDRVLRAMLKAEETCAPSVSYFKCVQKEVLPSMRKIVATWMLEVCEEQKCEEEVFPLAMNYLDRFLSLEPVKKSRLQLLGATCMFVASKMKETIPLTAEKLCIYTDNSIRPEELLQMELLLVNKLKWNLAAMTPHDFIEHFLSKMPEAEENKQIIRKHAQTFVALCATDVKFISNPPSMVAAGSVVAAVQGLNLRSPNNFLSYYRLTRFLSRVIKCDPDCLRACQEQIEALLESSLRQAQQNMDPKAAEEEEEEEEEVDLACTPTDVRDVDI
Chain of Cyclin-dependent kinase 7/ cyclin H (P51946 whole entry): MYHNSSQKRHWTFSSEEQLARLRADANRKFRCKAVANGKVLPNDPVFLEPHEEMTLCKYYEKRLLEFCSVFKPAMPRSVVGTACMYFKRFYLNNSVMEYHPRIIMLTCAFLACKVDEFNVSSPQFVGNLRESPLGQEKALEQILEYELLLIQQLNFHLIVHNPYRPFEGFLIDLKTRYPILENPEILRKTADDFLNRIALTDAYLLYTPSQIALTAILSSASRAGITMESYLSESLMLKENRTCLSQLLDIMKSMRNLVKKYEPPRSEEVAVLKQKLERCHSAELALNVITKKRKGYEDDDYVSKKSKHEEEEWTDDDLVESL
Chain of Cyclin-dependent kinase 7/ cyclin H (P50613 whole entry): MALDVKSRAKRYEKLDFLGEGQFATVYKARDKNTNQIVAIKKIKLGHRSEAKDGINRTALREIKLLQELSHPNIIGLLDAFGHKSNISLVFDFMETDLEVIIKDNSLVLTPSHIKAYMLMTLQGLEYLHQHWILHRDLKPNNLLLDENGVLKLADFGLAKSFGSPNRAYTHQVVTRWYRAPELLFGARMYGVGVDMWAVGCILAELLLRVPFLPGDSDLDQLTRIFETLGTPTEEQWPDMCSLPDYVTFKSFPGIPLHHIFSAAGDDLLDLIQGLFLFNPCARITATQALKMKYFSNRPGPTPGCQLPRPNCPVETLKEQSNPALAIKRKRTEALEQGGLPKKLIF
Chain of Cyclin-dependent kinase 1/cyclin B1 (P06493 whole entry): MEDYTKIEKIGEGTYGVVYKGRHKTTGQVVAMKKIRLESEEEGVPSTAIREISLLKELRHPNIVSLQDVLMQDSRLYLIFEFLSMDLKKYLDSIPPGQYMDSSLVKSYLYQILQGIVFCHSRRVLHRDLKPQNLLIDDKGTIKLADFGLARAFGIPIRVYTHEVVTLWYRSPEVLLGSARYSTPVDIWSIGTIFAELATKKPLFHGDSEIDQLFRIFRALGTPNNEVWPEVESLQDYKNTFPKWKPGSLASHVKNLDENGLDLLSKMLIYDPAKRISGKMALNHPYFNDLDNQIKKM
Chain of Cyclin-dependent kinase 1/cyclin B1 (P14635 whole entry, further chain): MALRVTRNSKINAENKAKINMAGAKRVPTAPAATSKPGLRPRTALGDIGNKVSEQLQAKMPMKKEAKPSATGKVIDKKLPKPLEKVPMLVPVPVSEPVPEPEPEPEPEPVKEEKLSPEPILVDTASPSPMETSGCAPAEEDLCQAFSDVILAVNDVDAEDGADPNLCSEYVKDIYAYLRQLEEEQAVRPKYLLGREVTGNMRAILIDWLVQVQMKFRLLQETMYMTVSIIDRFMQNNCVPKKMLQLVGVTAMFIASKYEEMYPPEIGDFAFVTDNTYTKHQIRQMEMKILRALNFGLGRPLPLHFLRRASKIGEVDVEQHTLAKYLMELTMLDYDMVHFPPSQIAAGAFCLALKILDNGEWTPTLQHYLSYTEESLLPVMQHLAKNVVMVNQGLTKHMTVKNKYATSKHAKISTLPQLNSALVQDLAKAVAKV
Chain of CDK9/cyclin T1 (O60563 whole entry): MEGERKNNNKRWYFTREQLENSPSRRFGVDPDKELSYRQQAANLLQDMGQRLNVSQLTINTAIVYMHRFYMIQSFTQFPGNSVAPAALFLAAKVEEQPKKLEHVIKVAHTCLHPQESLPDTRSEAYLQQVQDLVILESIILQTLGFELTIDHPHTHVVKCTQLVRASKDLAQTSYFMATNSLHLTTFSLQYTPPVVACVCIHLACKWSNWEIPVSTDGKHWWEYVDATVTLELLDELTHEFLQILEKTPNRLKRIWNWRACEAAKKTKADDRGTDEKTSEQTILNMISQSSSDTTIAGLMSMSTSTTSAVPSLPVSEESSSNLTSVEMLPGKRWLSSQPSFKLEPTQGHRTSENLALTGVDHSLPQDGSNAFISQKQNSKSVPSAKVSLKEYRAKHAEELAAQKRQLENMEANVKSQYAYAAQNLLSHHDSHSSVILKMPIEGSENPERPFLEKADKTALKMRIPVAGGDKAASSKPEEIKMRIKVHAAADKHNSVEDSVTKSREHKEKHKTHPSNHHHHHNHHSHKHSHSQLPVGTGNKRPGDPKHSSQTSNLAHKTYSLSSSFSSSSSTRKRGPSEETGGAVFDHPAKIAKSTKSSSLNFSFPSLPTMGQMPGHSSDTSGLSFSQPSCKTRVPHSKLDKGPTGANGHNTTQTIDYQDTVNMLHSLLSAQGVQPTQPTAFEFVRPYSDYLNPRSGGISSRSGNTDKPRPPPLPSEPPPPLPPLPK
Chain of CDK9/cyclin T1 (P50750 whole entry): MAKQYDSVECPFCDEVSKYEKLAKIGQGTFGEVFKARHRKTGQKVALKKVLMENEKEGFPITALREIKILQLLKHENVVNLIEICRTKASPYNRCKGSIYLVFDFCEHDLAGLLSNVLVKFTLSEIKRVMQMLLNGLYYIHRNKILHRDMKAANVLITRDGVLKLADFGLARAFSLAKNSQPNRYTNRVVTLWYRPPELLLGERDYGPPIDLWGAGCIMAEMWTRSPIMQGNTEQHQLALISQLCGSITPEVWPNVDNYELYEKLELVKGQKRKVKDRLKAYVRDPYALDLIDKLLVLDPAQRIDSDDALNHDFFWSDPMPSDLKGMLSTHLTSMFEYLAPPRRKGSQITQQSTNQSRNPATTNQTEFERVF

Turning to `CC[C@H](Nc1nc(NCc2cccnc2)c2ncn(C(C)C)c2n1)[C@@H](C)O` [listing 1 of 2 here], the outcome in data set [1], in data set [3], in data set [4] and in [5] was Active. Also, the inhibition entry in [2] was “Active”.
Take `CC[C@@H](Nc1nc(NCc2cccnc2)c2ncn(C(C)C)c2n1)C(C)(C)O`: the IC50 is 0.2 µM in [6]; 6.2 µM in data set [7]; 7.5 µM in data set [8]; 3.1 µM in [9]; > 200 µM in data set [10]; 0.21 µM in data set [19]. Besides, the GI50 in data set [11] came to 10 µM; in [12], 21 µM; in data set [13], 20 µM; in [14], 21 µM; in data set [15], 13 µM; in data set [16], 19 µM. The compound also came in with a GI50 in [17] of 13 µM. Moreover, the metabolised at 0.5 h, 10 µM in data set [18] stood at 16%. The solubility entry in data set [20] is reported as “soluble”. The compound further gave a maximum concentration (Cmax) in [21] of 275 µM. In data set [22], this compound returned an AUC at 24 h of 223 µM·h. This compound had a half-life in data set [23] of 36 min. Moreover, the Vd in data set [24] was 0.01 L. This compound showed a clearance in data set [25] of 0.2 mL/min. The Ratio in data set [26] was found to be 2. The compound further yielded a bioavailability in data set [27] of 15%.
With `CC[C@H](Nc1nc(NCc2cccnc2)c2ncn(C(C)C)c2n1)C(C)(C)O`, the IC50 is 0.07 µM in [6]; 4.4 µM in data set [7]; 12 µM in data set [8]; 2.5 µM in [9]; > 200 µM in data set [10]; 0.16 µM in [19]. Moreover, the GI50 in [11] was 4 µM; in data set [12], 5.8 µM; in data set [13] it was 5 µM; in data set [14], 6.8 µM; in data set [15], 4.1 µM; in data set [16] it was 5.4 µM. Besides, the GI50 in data set [17] is 5.4 µM. Further, in data set [18], the metabolised at 0.5 h, 10 µM amounted to 22%. In data set [20], the solubility entry was “soluble”. The compound also gave a Cmax in data set [21] of 215 µM. The AUC at 24 h in data set [22] came out at 109 µM·h. Besides, the half-life in data set [23] is 24 min. In data set [24], this compound showed a Vd of 0.012 L. The clearance in data set [25] was 0.4 mL/min. Also, the Ratio in [26] was 2. Besides, in data set [27], the bioavailability turned out to be 15%.
Consider `CC[C@H](Nc1nc(NCc2cccnc2)c2ncn(C(C)C)c2n1)[C@@H](C)O` [listing 2 of 2 here], for which the solubility result in [20] is recorded as “soluble”. In data set [21], the Cmax came to 268 µM. Moreover, the AUC at 24 h in data set [22] was found to be 298 µM·h. Moreover, in [23], the half-life is 168 min. The compound further displayed a Vd in [24] of 0.013 L. The same compound had a clearance in [25] of 0.15 mL/min. In data set [27], this compound yielded a bioavailability of 15%. Further, the Activity in [28] turned out to be 49%.
